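Briefly, cells in 96-well plates were exposed to five compound concentrations for 48 h, and endpoints were estimated by linear interpolation. GI50 marks 50% less growth.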 Active and inactive are the calls of the source. Rule as the data show it: active = GI50 up to about 1.1 µM and inactive = higher.

This is an account of results in ChEMBL document CHEMBL1201862, “PubChem BioAssay data set” (2004).

What all share (test): DTP human tumour cell line panel, 48 h
The test system of experiment [1] is K562.
The subject of experiment [2] is NCI-H226.
The test system of experiment [3] is IGROV-1.
Experiment [4] has as its system BT-549.
For experiment [5], the system named is HOP-62.
Experiment [6] has as its system SK-MEL-5.
Experiment [7] deals with MDA-N.
Experiment [8] has as its system Hs-578T.
Experiment [9] relates to NCI-H23.
The test system of experiment [10] is SNB-19.
Experiment [11] deals with OVCAR-8.
In experiment [12] the test system is HCT-116.
Experiment [13] relates to SF-539.
Experiment [14] relates to 786-0.
For experiment [15], the system named is NCI/ADR-RES.
Experiment [16] relates to SF-268.
In experiment [17] the test system is CCRF-CEM.
Experiment [18] relates to OVCAR-4.
The test system of experiment [19] is RPMI-8226.
The test system of experiment [20] is NCI-H522.

A word on the GI50: it is the concentration at which growth is held to half of that of the control. In the case of `COc1ccc(C2=NN(C(=N)S)C(c3ccccc3)C2)cc1` (stereo not given), the GI50 in experiment [1] is 30.1 µM (inactive); in experiment [2], 34.6 µM (inactive); in experiment [3] it was 48.4 µM (inactive); in experiment [4], 38.2 µM (inactive); in experiment [5] it was 38.2 µM (inactive); in experiment [6] it was 16.7 µM (inactive). Also, the GI50 is 27.9 µM (inactive) in [7]; 75.7 µM (inactive) in experiment [8]; 34 µM (inactive) in [9]; 51.8 µM (inactive) in experiment [10]; 39.7 µM (inactive) in experiment [11]; 31.5 µM (inactive) in experiment [12]. The GI50 was 61.5 µM (inactive) in [13]; 38.3 µM (inactive) in experiment [14]; 34.5 µM (inactive) in experiment [15]; 43.6 µM (inactive) in experiment [16]; 33.2 µM (inactive) in experiment [17]; 30.3 µM (inactive) in experiment [18]. Besides, the GI50 was 23.6 µM (inactive) in experiment [19] and 25.5 µM (inactive) in experiment [20].

As for `Cc1n[nH]c(=O)n1C1CC1`, the GI50 in [1] was > 100 µM (inactive); in [2] it was > 100 µM (inactive); in experiment [3], > 100 µM (inactive); in experiment [4], 0.0111 µM (active); in experiment [5] it was > 100 µM (inactive); in experiment [6] it was > 100 µM (inactive). Also, the GI50 in experiment [7], in experiment [8], in [9], in [10], in [11] and in [12] was > 100 µM (inactive) in each case. Also, the GI50 in [13], in [14], in experiment [15], in experiment [16], in [17] and in experiment [18] was > 100 µM (inactive) in each case. The GI50 in [19] and in [20] was > 100 µM (inactive) throughout.

For the molecule `O=C(C[C@@H]1NCCC[C@H]1O)Cn1cnc2cc(Br)c(Cl)cc2c1=O`, the GI50 is 0.0216 µM (active) in experiment [1]; < 0.0115 µM (active) in experiment [2]; 0.0296 µM (active) in [3]; 0.0347 µM (active) in [4]; 0.0279 µM (active) in experiment [5]; 0.0153 µM (active) in [6]. In addition, the GI50 in [7] was 0.0138 µM (active); in experiment [8], 0.0274 µM (active); in experiment [9], 0.0195 µM (active); in [10], 0.0204 µM (active); in experiment [11], < 0.0117 µM (active); in experiment [12], 0.023 µM (active). The GI50 in experiment [13] was 0.023 µM (active); in experiment [14], 0.0182 µM (active); in experiment [15] it was 0.0416 µM (active); in experiment [16], 0.0315 µM (active); in experiment [17] it was 0.0192 µM (active); in experiment [18], 0.0186 µM (active). The GI50 in [19] was 0.0243 µM (active); in experiment [20], < 0.0147 µM (active).

For `Cc1ccc(S(=O)(=O)Oc2coc(CO)cc2=O)cc1`, the GI50 was 6.04 µM (inactive) in [1]; 33.1 µM (inactive) in experiment [2]; 9.29 µM (inactive) in [3]; 13.8 µM (inactive) in [4]; 14.7 µM (inactive) in experiment [5]; 13.5 µM (inactive) in experiment [6]. The GI50 in experiment [7] was 8.02 µM (inactive); in experiment [8], 19.5 µM (inactive); in experiment [9], 16.8 µM (inactive); in [10] it was 14.6 µM (inactive); in [11] it was 17.6 µM (inactive); in experiment [12] it was 4.25 µM (inactive). In addition, the GI50 is 20.2 µM (inactive) in experiment [13]; 6.38 µM (inactive) in experiment [14]; 22.8 µM (inactive) in experiment [15]; 9.42 µM (inactive) in experiment [16]; 3.08 µM (inactive) in [17]; 15.1 µM (inactive) in experiment [18]. Moreover, the GI50 in experiment [19] was 3.97 µM (inactive); in experiment [20], 1.76 µM (inactive).

In the case of `CC(C)CNC(=O)c1c(NC(=O)c2ccccc2)sc2[nH]c(=O)n(-c3ccccc3)c(=O)c12`, the GI50 is 31 µM (inactive) in experiment [1]; > 82.6 µM (inactive) in experiment [2]; 74.3 µM (inactive) in experiment [3]; 26.4 µM (inactive) in experiment [4]; 15.3 µM (inactive) in experiment [5]; > 93.1 µM (inactive) in [6]. The GI50 is > 100 µM (inactive) in [7]; 14.3 µM (inactive) in [8]; 80.5 µM (inactive) in experiment [9]; 24 µM (inactive) in [10]; > 100 µM (inactive) in experiment [11]; > 86.3 µM (inactive) in experiment [12]. Moreover, the GI50 in experiment [13] was 46 µM (inactive); in experiment [14] it was 16.8 µM (inactive); in experiment [15] it was > 97.5 µM (inactive); in [16] it was 37.1 µM (inactive); in [17], 40.5 µM (inactive); in experiment [18] it was > 64 µM (inactive). Moreover, the GI50 was > 100 µM (inactive) in [19] and 43.7 µM (inactive) in [20].

Consider `O=CNc1ccccc1OCCOc1ccccc1NC=O`, for which the GI50 in experiment [1], in experiment [2], in [3], in experiment [4], in [5] and in experiment [6] was > 100 µM (inactive) in each case. For the same molecule, the GI50 in experiment [7], in [8], in experiment [9], in [10], in experiment [11] and in [12] was > 100 µM (inactive) throughout. The GI50 in experiment [13], in experiment [14], in experiment [15], in experiment [16], in [17] and in experiment [18] was > 100 µM (inactive) each time. Also, the GI50 in experiment [19] and in [20] was > 100 µM (inactive) throughout.

As for `COc1ccc2nc(NC(=O)/C(C#N)=C/c3ccccc3)sc2c1`, the GI50 in experiment [1] is 23.5 µM (inactive); in experiment [2], > 58.2 µM (inactive); in [3] it was 29.4 µM (inactive); in experiment [4] it was 52.2 µM (inactive); in experiment [5], > 64.1 µM (inactive); in experiment [6] it was 20.8 µM (inactive). In addition, the GI50 was 34.8 µM (inactive) in experiment [7]; > 48.5 µM (inactive) in experiment [8]; > 67.3 µM (inactive) in experiment [9]; > 100 µM (inactive) in [10]; > 51.6 µM (inactive) in experiment [11]; 24.7 µM (inactive) in [12]. In addition, the GI50 in experiment [13] is 27.7 µM (inactive); in experiment [14] it was 44.9 µM (inactive); in experiment [15], > 39 µM (inactive); in [16], > 56.5 µM (inactive); in experiment [17] it was 14.1 µM (inactive); in [18] it was 37.6 µM (inactive). Further, the GI50 in [19] is 23.4 µM (inactive); in experiment [20] it was 15.2 µM (inactive).

Turning to `O=C1C2=C(c3ccccc31)C(c1ccccc1)N1C(=O)CSC1=N2` (stereo not given), the GI50 in [1] is 37.2 µM (inactive); in experiment [2], 38.5 µM (inactive); in experiment [3], > 57.4 µM (inactive); in experiment [4], 24.5 µM (inactive); in experiment [5], 83.8 µM (inactive); in [6], 36.9 µM (inactive). The GI50 in [7] was 17 µM (inactive); in experiment [8] it was 35.6 µM (inactive); in experiment [9] it was 56.4 µM (inactive); in experiment [10] it was 55.7 µM (inactive); in experiment [11], > 71.8 µM (inactive); in experiment [12] it was > 56.4 µM (inactive). Also, the GI50 in experiment [13] is > 53.7 µM (inactive); in experiment [14], > 54.6 µM (inactive); in [15], 24 µM (inactive); in [16], 58.1 µM (inactive); in experiment [17], 48.4 µM (inactive); in experiment [18], 35.3 µM (inactive). The GI50 in [19] is 56.9 µM (inactive); in [20] it was 29.4 µM (inactive).

As for `CC1CCC2(O)C3(C)CC4(O)OC2(C1O)C1(O)C3(O)C(OC(=O)c2ccc[nH]2)C(O)(C(C)C)C41C` (stereo not given), the GI50 in [1] is > 20.9 µM (inactive); in experiment [2], > 100 µM (inactive); in experiment [3], > 100 µM (inactive); in experiment [4] it was > 100 µM (inactive); in experiment [5], > 100 µM (inactive); in experiment [6] it was > 100 µM (inactive). Besides, the GI50 in experiment [7], in [8], in experiment [9], in [10], in experiment [11] and in experiment [12] was > 100 µM (inactive) throughout. For the same molecule, the GI50 in experiment [13] was > 100 µM (inactive); in experiment [14], > 100 µM (inactive); in [15] it was > 100 µM (inactive); in [16], > 31.6 µM (inactive); in experiment [17], > 100 µM (inactive); in experiment [18], > 100 µM (inactive). For the same molecule, the GI50 in [19] and in [20] was > 100 µM (inactive) throughout.

In the case of `Cc1ccnc2nc(-c3ccc(Cl)cc3)cc(O)c12`, the GI50 in experiment [1] is 1.89 µM (inactive); in experiment [2] it was 5.16 µM (inactive); in experiment [3], 3.01 µM (inactive); in experiment [4], > 100 µM (inactive); in [5], 8.41 µM (inactive); in [6], 3.13 µM (inactive). Moreover, the 50% growth inhibitory concentration (GI50) was 0.752 µM (active) in [7]; 3.9 µM (inactive) in experiment [8]; 6.31 µM (inactive) in [9]; 19.1 µM (inactive) in [10]; > 27 µM (inactive) in experiment [11]; 4.46 µM (inactive) in experiment [12]. Besides, the GI50 was 5.74 µM (inactive) in experiment [13]; 4.46 µM (inactive) in experiment [14]; 3.88 µM (inactive) in experiment [15]; 28.4 µM (inactive) in [16]; 4.63 µM (inactive) in experiment [17]; > 23.8 µM (inactive) in [18]. Further, the GI50 was 2.94 µM (inactive) in experiment [19] and 2.58 µM (inactive) in experiment [20].
